Values quoted from earlier work, collected in patent US20220305055A1, “PHARMACEUTICAL CO[…]” (Zincum, Inc., priority 2016, published 2022).

System: diabetic rats
Conditions: zinc chloride administered

[Cl-].[Cl-].[Zn+2] [zinc chloride]
hyperglycemia: hyperglycemia improved
